Values quoted from earlier work as cited in US7438896B2, “Method of skin care using lipoic and ascorbic acids” (N.V. Perricone LLC, priority 1995, dated 2008).

What was measured:
rat edema = conditions: compared with lipoic alone or vitamin E alone
[1] = system: cultured human keratinocytes; conditions: compositions without serine
porcine skin = conditions: compositions without serine

O=C(O)CCCC[C@@H]1CCSS1 (single isomer, unassigned) [R-enantiomer of lipoic acid]
anti-inflammatory effect in rat edema model (rat edema): superior to lipoic alone or to vitamin E alone

O=C(O)CCCC[C@H]1CCSS1 (single isomer, unassigned) [S-enantiomer]
effect on the action of insulin (insulin): decreased the effect of insulin

O=C(O)CCCCC1CCSS1 (stereo not shown) [lipoic acid, 1,2-dithiolane-3-pentanoic acid]
effect on ceramide production [1]: had no effect
effect on ceramide production (porcine skin): had no effect
